{
  "source": "patent US20110293745A1",
  "about": "“AURORA KINASE INHIBITORS” (SUNESIS PHARMACEUTICALS, INC., priority 2008, published 2011)",
  "key": {"[1]": {"test_system": "histone H3 phosphorylation in femur bone marrow", "assay": "pHH3 immunohistochemistry in mouse bone marrow", "format": "in vivo", "conditions": "for bone marrow cells positive for pHH3, times less evident than vehicle: 170 mg/kg IP BIW×3", "protocol": "For each study, animals were randomized by tumor volume and distributed into groups of ten animals each. […] Inhibition of histone H3 (HH3) phosphorylation was evaluated in HCT 116 xenograft tumors, mouse femur bone marrow, and mouse skin punch biopsy sections by immunohistochemistry (IHC). […] The tumors were collected 6 hrs post-dose on day 4, 11, 18 and on day 25 (one week after completion of dosing phase of the experiment). Phosphorylated histone H3 (pHH3) was detected by immunohistochemistry staining of tissue sections with the antibody # 9701 (Cell Signaling Technology, Inc.), which recognizes phosphorylation of Ser10 residue in histone H3 protein."}, "[2]": {"test_system": "cleaved PARP in MV-4-11 xenograft tumors", "assay": "PARP cleavage in tumor lysates (western blotting)", "format": "in vivo, mouse", "conditions": "single IP dose 50 mg/kg or 100 mg/kg; 2, 6, 24 hrs", "protocol": "PARP cleavage was measured in HCT 116 (colon carcinoma) and MV-4-11 tumor lysates by western blotting. […] HCT 116 tumors were collected 3, 6 and 12 hrs post dosing; MV-4-11 tumors were collected at 2, 6 and 24 hrs post dosing. […] Tumors were lysed in cell extraction buffer (Biosource # FNN0011) containing protease inhibitors (Sigma # P2714), and PMSF Phenylmethanesulfonyl fluoride (PMSF) [#P7626, Sigma]. Forty micrograms of protein for each sample was loaded and run on 4-12% Tris-Glycine NuPAGE gel (Invitrogen), in Novex Tris-Glycine running buffer (Invitrogen). After gel separation, proteins were electro-transferred to a PVDF membrane (Invitrogen)."}, "[3]": {"test_system": "histone H3 phosphorylation in skin biopsies", "assay": "Clinical pharmacodynamics, skin punch biopsies", "format": "in vivo, human", "conditions": "Cycle 1, Day 1, 3-7 hours after start of infusion", "protocol": "Clinical pharmacodynamic assessments were performed as follows. Skin punch biopsy samples were collected prior to (e.g., just prior to or up to 14 days prior to) treatment and during Cycle 1, Day 1 of treatment at between 3 and 7 hours after the start of the 3-hour infusion. Skin punch biopsy samples were analyzed for inhibition of histone H3 phosphorylation."}, "MiaPaca2": {"test_system": "MiaPaca2", "assay": "Cell cycle analysis (cells with ≧4N DNA content)", "format": "cell-based", "conditions": "Homo sapiens, MIA PaCa-2, MiaPaca2, 16 hours", "text": "Cells were fixed, stained, and analyzed."}, "HCT 116 cells": {"test_system": "HCT 116 cells", "assay": "Fluorescent imaging (DNA and tubulin)", "format": "cell-based, human", "conditions": "16 nM, 72 hr", "protocol": "Cells were then fixed with 4% paraformaldehyde for 20 min at room temperature, washed with 1×PBS three times, permeabilized with 0.1% Triton® X-100 nonionic surfactant for 5 min at room temperature, washed with 1×PBS twice, blocked with 10% fetal bovine serum (FBS) in PBS for 2 hr at room temperature. The cells were incubated in a diluted alpha-tubulin primary antibody solution in 10% FBS for 2 days at 4° C., and stained with DAPI (DNA/.blue) and with a diluted FITC-labeled secondary antibody (tubulin/green) solutions in 10% FBS for 1 hr at room temperature away from light. Cells were then washed in 1×PBS and the coverslips were mounted on slides and analyzed with a […]2 fluorescence microscope with a 63× oil immersion objective. Images were captured on a […] camera and analyzed using Image-Pro software. For both images captured, the same objective was used."}, "[4]": {"test_system": "A2780 ovarian cancer xenograft", "assay": "In vivo efficacy, mouse xenograft", "protocol": "(§1) Percent TGI is then calculated with the following equation: […]\n(§2) Time To Endpoint (TTE) was calculated for each individual animal to reach the predetermined study end point where the tumor volume becomes 1200 mm^3 or 10% of body weight or a greater than 20% body weight loss for two sequential measurements. The TTE is calculated and the median value is recorded for the group. Tumor Growth Delay (TGD) is then calculated with the following equation: […]\nA2780 ovarian cancer cells [200 μL of a 2.5×10^7 cells/mL suspension (1:1 DPBS with cells:Matrigel)] were implanted subcutaneously in the right hind flank of mice. After 7 days, when tumors reached an average volume of approximately 130 mm^3, animals were weighed, randomized by tumor volume (l×w×h×0.52), and assigned to the various study groups before initial dosing."}, "A375 melanoma xenograft": {"test_system": "A375 melanoma xenograft", "assay": "In vivo efficacy, mouse xenograft", "protocol": "as §1, §2\nA375 melanoma tumor fragments (1 mm^3) were implanted subcutaneously in the right hind flank of mice. After 9 days, when tumors reached an average volume of approximately 110 mm^3, animals were weighed, randomized by tumor volume (l×w×h×0.52), and assigned to the various study groups before initial dosing."}, "HT-29": {"test_system": "HT-29", "assay": "cells", "conditions": "Homo sapiens, HT-29, 16 h, read-out: Cell Cycle EC50"}, "[5]": {"test_system": "broad panel of cancer cell lines", "assay": "cells", "conditions": "Homo sapiens, 96 h, read-out: anti-proliferative IC50 values", "description": "Cellular proliferation was assessed using the Cell Proliferation ELISA, bromodeoxyuridine (BrdU) kit (Roche) including reagents, according to the kit protocol."}, "[6]": {"assay": "Clinical pharmacokinetic evaluation, 3-hour infusion", "format": "in vivo, human", "protocol": "Pharmacokinetic (PK) evaluation was performed on Days 1 and 15."}, "[7]": {"assay": "Pharmacokinetics, single bolus intravenous injection", "format": "in vivo, Sprague-Dawley rats", "conditions": "Sprague-Dawley, rat, plasma, 5 mg/kg", "text": "Pharmacokinetic parameters were estimated using noncompartmental analysis within WinNonlin v. 4.1. Quantification of Compound 2 was done by HPLC-MS/MS after extraction from plasma with acetonitrile. […] For rising dose experiments measuring exposure for each species, sets containing several animals were singly dosed at a given dose. Results from single-dose experiments are shown in FIG. 10A, Table 43, and in FIG. 10B and Table 44, respectively. […] C0 is initial concentration extrapolated to time zero. AUCINF is area under the plasma-concentration time curve from time zero extrapolated to the infinite time. CL is clearance; Vss is steady state volume of distribution. T1/2 is half-life."}},
  "data": [
    {"smiles": "CS(=O)(=O)O.O=C(Nc1cccc(Cl)c1)Nc1ncc(CCNc2ncnc3ccsc23)s1", "note": "[Compound 1, 1-(3-chlorophenyl)-3-{5-[2-(thieno[3,2-d]pyrimidin-4-ylamino)ethyl]thiazo}-urea]", "values": [
      {"measurement": "bone marrow cells positive for pHH3, times less evident than vehicle", "setting": "[1]; day 11", "result": 3, "unit": "times"},
      {"measurement": "bone marrow cells positive for pHH3, times less evident than vehicle", "setting": "[1]; day 18", "result": 7, "unit": "times"},
      {"measurement": "Histone H3 phosphorylation in bone marrow", "setting": "[1]; day 25", "result": "recovered to normal levels"},
      {"measurement": "PARP cleavage", "setting": "[2]", "result": "dose- and time-dependent"},
      {"measurement": "doses at which inhibition of pHH3 was observed in skin biopsies of patients", "setting": "[3]", "result": "≥ 240", "unit": "mg/m^2"},
      {"measurement": "EC50", "setting": "MiaPaca2", "result": 9, "unit": "nM"},
      {"measurement": "cell morphology", "setting": "HCT 116 cells", "result": "formation of large polyploid cells"},
      {"measurement": "% TGI", "setting": "[4]; 42.5 mg/kg biw × 3", "result": 0, "unit": "%"},
      {"measurement": "TGD", "setting": "[4]; 42.5 mg/kg biw × 3", "result": 0, "unit": "days"},
      {"measurement": "% TGI", "setting": "[4]; 85 mg/kg biw × 3", "result": 9.8, "unit": "%"},
      {"measurement": "TGD", "setting": "[4]; 85 mg/kg biw × 3", "result": 3.5, "unit": "days"},
      {"measurement": "% TGI", "setting": "[4]; 170 mg/kg biw × 3", "result": 53.8, "unit": "%"},
      {"measurement": "TGD", "setting": "[4]; 170 mg/kg biw × 3", "result": 9, "unit": "days"},
      {"measurement": "% TGI", "setting": "A375 melanoma xenograft; 42.5 mg/kg biw × 3", "result": 1.2, "unit": "%"},
      {"measurement": "TGD", "setting": "A375 melanoma xenograft; 42.5 mg/kg biw × 3", "result": 0, "unit": "days"},
      {"measurement": "% TGI", "setting": "A375 melanoma xenograft; 85 mg/kg biw × 3", "result": 20.6, "unit": "%"},
      {"measurement": "TGD", "setting": "A375 melanoma xenograft; 85 mg/kg biw × 3", "result": 0, "unit": "days"},
      {"measurement": "% TGI", "setting": "A375 melanoma xenograft; 170 mg/kg biw × 3", "result": 65.4, "unit": "%"},
      {"measurement": "TGD", "setting": "A375 melanoma xenograft; 170 mg/kg biw × 3", "result": 7.4, "unit": "days"},
      {"measurement": "EC50", "setting": "HT-29", "result": 12, "unit": "nM"},
      {"measurement": "IC50", "setting": "[5]", "result": "2 to 10", "unit": "nM"}
    ]},
    {"smiles": "O=C(Nc1cccc(Cl)c1)Nc1ncc(CCNc2ncnc3ccsc23)s1", "note": "[Compound 2, 1-(3-chlorophenyl)-3-{5-[2-(thieno[3,2-d]pyrimidin-4-ylamino)ethyl]thiazol-2-yl}-urea]", "values": [
      {"measurement": "disposition following repeated administration", "setting": "[6]; first versus third weekly dose", "result": "no change in Compound 2 disposition"},
      {"measurement": "half-life", "setting": "[6]; human, plasma, intravenous, patients, weekly 3-hour infusion, Days 1 and 15, read-out: terminal half-life (converted)", "result": 7, "unit": "h"},
      {"measurement": "clearance", "setting": "[6]; patients", "result": "moderate to low"},
      {"measurement": "AUC(0-inf)", "setting": "[7]", "result": 2100, "unit": "ng·h/mL"},
      {"measurement": "C0", "setting": "[7]", "result": 3600, "unit": "ng/mL"},
      {"measurement": "clearance", "setting": "[7]", "result": 41.2, "unit": "mL/min/kg"},
      {"measurement": "half-life", "setting": "[7]", "result": 0.8, "unit": "h"},
      {"measurement": "Vd", "setting": "[7]; read-out: Vss", "result": 1.8, "unit": "L/kg"}
    ]}
  ]
}
